For 16 compounds, IC50 results are on record in patent US10821115B2, “Compounds that inhibit Mcl-1 protein” (priority 2017, dated 2020).

In general, IC50 refers to the concentration needed to halve the response being measured.

The test relates to human multiple myeloma cell line, OPM-2. As to the kind of experiment: Cell viability assay (OPM-2 10 FBS), CellTiter-Glo. The test is classed as cell-based. The procedure:
Cell viability assay (OPM-2 10 FBS)
The human multiple myeloma cell line, OPM-2, was cultured in complete growth medium containing RPMI 1640 and 10% fetal bovine serum (FBS). Cells were seeded into 384-well plates at 3000 cells/well density in complete growth medium containing 10% FBS, and incubated for 16 h with serially diluted test compounds in a 37° C. incubator with 5% CO2. Cell viability was tested using CellTiter-Glo® assay (Promega, Madison, Wis.) according to the manufacturer recommendations. Luminescence was determined using an EnVision® Multilabel plate reader 25 min after the addition of detection reagent. IC50 values were then calculated with Xlfit using a logistical 4-parameter fit model in GraphPad Prism (GraphPad Software, San Diego, Calif.) or in Genedata Screener® (Genedata, Basel, Switzerland).
(ATP-based viability assays read luminescence as a measure of living cells.)

[1] abbreviates: read-out: OPM-2 10% FBS IC50 IP, OPM-2 cells, 10% FBS, 16 h incubation.
Where [2] appears, read: Homo sapiens, OPM-2, 16 h, read-out: OPM-2 10% FBS IC50 IP, OPM-2 cells, 10% FBS, 16 h incubation.
[3] abbreviates: Homo sapiens, OPM-2, 16 h, read-out: OPM-2 10% FBS IC50 IP, OPM-2 cells, 10% FBS, 16 h, CellTiter-Glo.

Where two headings read alike, the source gives them in different places.

Regarding `COCC[C@@H]1[C@@H](C)C/C=C/[C@](CN2CCN3CCOC[C@@H]3C2)(OC)[C@@H]2CC[C@H]2CN2C[C@@]3(CCCc4cc(Cl)ccc43)COc3ccc(nc32)C(=O)NS1(=O)=O` [Example 20, (1 S,3′R,6′R,7′S,8′E,11′S, 12′R)-6-chloro-7′-((9aS)-hexahydropyrazino[2,1-c][1,4]oxazin-8(1H)-ylmethyl)-7′-methoxy-12′-(2-methoxyethyl)-11′-methyl-3,4-dihydro-2H,15′H-spiro[naphthalene-1,22′-[20]oxa[13]thia[1,14,25]triazatetracyclo[14.7.2.0-3,6˜.0˜19,24˜]pentacosa[8,16,18,24]tetraen]-15′-one 13′,13′-dioxide], the IC50 under setting [1] came to 22 nM.

Consider `COCC(COC)N1CCN(C[C@]2(OC)/C=C/C[C@H](C)[C@@H](C)S(=O)(=O)NC(=O)c3ccc4c(c3)N(C[C@@H]3CC[C@H]32)C[C@@]2(CCCc3cc(Cl)ccc32)CO4)CC1` [Example 287, (1S,3′R,6′R,7′S,8′E,11′S,12′R)-6-chloro-7′-methoxy-7′-((4-(2-methoxy-1-(methoxymethyl)ethyl)-1-piperazinyl)methyl)-11′,12′-dimethyl-3,4-dihydro-2H,15′H-spiro[naphthalene-1,22′-[20]oxa[13]thia[1,14]diazatetracyclo [14.7.2.0~3,6~.0~19,24~]pentacosa[8,16,18,24]tetraen]-15′-one 13′,13′-dioxide], for which, under setting [2], the IC50 is 50 nM. Turning to `C[C@@H]1[C@@H](C)C/C=C/[C@@](O)(C#C[Si](C)(C)C)[C@@H]2CC[C@H]2CN2C[C@@]3(CCCc4cc(Cl)ccc43)COc3ccc(cc32)C(=O)NS1(=O)=O` [Example 100240, (1S,3′R,6′R,7′S,8′E,11′S,12′R)-6-chloro-7′-hydroxy-11′,12′-dimethyl-7′-((trimethylsilyl)ethynyl)-3,4-dihydro-2H,15′H-spiro[naphthalene-1,22′-[20]oxa[13]thia[1,14]diazatetracyclo [14.7.2.0~3,6~.0~19,24~]pentacosa[8,16,18,24]tetraen]-15′-one 13′,13′-dioxide], under “read-out: OPM-2 10% FBS IC50 IP, OPM-2 cells, 10% FBS, 16 h, CellTiter-Glo”, the IC50 was found to be 266 nM.

For `CO[C@]1(CN2CCN3CCS(=O)(=O)C[C@@H]3C2)/C=C/C[C@H](C)[C@@H](C)S(=O)(=O)NC(=O)c2ccc3c(c2)N(C[C@@H]2CC[C@H]21)C[C@@]1(CCCc2cc(Cl)ccc21)CO3` [Example 215], the IC50 under setting [1] was found to be 107 nM. For the compound `CO[C@]1(c2cccc(F)n2)/C=C/C[C@H](C)[C@@H](C)S(=O)(=O)NC(=O)c2ccc3c(c2)N(C[C@@H]2CC[C@H]21)C[C@@]1(CCCc2cc(Cl)ccc21)CO3` [Example 100340, (1S,3′R,6′R,7′R,8′E,11′S,12′R)-6-chloro-7′-(6-fluoro-2-pyridinyl)-7′-methoxy-11′,12′-dimethyl-3,4-dihydro-2H,15′H-spiro[naphthalene-1,22′-[20]oxa[13]thia[1,14]diazatetracyclo [14.7.2.0~3,6~.0~19,24~]pentacosa[8,16,18,24]tetraen]-15′-one 13′,13′-dioxide], the IC50 under setting [3] was determined as 308 nM. The same measure, in the same setting: the result for `C[C@@H]1[C@@H](C)CCC[C@](CO)(CN2CCOCC2)[C@@H]2CC[C@H]2CN2C[C@@]3(CCCc4cc(Cl)ccc43)COc3ccc(cc32)C(=O)NS1(=O)=O` [Example 100406, (1S,3′R,6′R,7′R,11′S,12′R)-6-chloro-7′-(hydroxymethyl)-11′,12′-dimethyl-7′-(4-morpholinylmethyl)-3,4-dihydro-2H,15′H-spiro[naphthalene-1,22′-[20]oxa[13]thia[1,14]diazatetracyclo [14.7.2.0~3,6~.0~19,24~]pentacosa[16,18,24]trien]-15′-one 13′,13′-dioxide] reads 747 nM. `CO[C@@]1(CN2CCN(C3COC3)CC2)/C=C/C[C@H](C)[C@@H](C)S(=O)(=O)NC(=O)c2ccc3c(n2)N(C[C@@H]2CC[C@H]21)C[C@@]1(CCCc2cc(Cl)ccc21)CO3` [Example 19, (1 S,3′R,6′R,7′S,8′E,11′S,12′R)-6-chloro-7′-methoxy-11′,12′-dimethyl-7′-((4-(3-oxetanyl)-1-piperazinyl)methyl)-3,4-dihydro-2H, 15′H-spiro[naphthalene-1,22′-[20]oxa[13]thia[1,14,25]triazatetracyclo[14.7.2.0-3,6˜.0˜19,24˜]pentacosa[8,16,18,24]tetraen]-15′-one 13′,13′-dioxide]: the IC50 under setting [2] turned out to be 47 nM. Take `CCO[C@]1(CN2CCN(C(C)C)[C@H](C)C2)/C=C/C[C@H](C)[C@@H](CCOC)S(=O)(=O)NC(=O)c2ccc3c(c2)N(C[C@@H]2CC[C@H]21)C[C@@]1(CCCc2cc(Cl)ccc21)CO3` [Example 17, (1S,3′R,6′R,7′R,8′E,11′S,12′R)-6-chloro-7′-ethoxy-12′-(2-methoxyethyl)-11′-methyl-7′-(((3R)-3-methyl-4-(1-methylethyl)-1-piperazinyl)methyl)-3,4-dihydro-2H,15′H-spiro[naphthalene-1,22′-[20]oxa[13]thia[1,14]diazatetracyclo[14.7.2.0-3,6˜.0˜19,24˜]pentacosa[8,16,18,24]tetraen]-15′-one 13′,13′-dioxide]: the IC50 under setting [1] turned out to be 34 nM. With `CO[C@]1(CN2CCN3CCS(=O)(=O)C[C@@H]3C2)/C=C/C[C@H](C)[C@@H](C)S(=O)(=O)NC(=O)c2ccc3c(c2)N(C[C@@H]2CC[C@H]21)C[C@@]1(CCCc2cc(Cl)ccc21)CO3` [Example 219], under setting [1], the IC50 was 47 nM. Still for that read-out and setting: the result for `C[C@@H]1[C@@H](C)C/C=C/[C@@](O)(CN2CCN3CCOC[C@@H]3C2)[C@@H]2CC[C@H]2CN2C[C@@]3(CCCc4cc(Cl)ccc43)COc3ccc(cc32)C(=O)NS1(=O)=O` [Example 193, (1S,3′R,6′R,7′S,8′E,11′S,12′R)-6-chloro-7′-((9aS)-hexahydropyrazino[2,1-c][1,4]oxazin-8(1H)-ylmethyl)-7′-hydroxy-11′,12′-dimethyl-3,4-dihydro-2H, 15′H-spiro[naphthalene-1,22′-[20]oxa[13]thia[1,14]diazatetracyclo[14.7.2.0-3,6˜.0˜19,24˜]pentacosa[8,16,18,24]tetraen]-15′-one 13′,13′-dioxide] reads 23 nM; that for `CO[C@@]1(CN2CCN3CCCC[C@@H]3C2)/C=C/C[C@H](C)[C@@H](Cc2ccccc2)S(=O)(=O)NC(=O)c2ccc3c(c2)N(C[C@@H]2CC[C@H]21)C[C@@]1(CCCc2cc(Cl)ccc21)CO3` (single isomer, unassigned) [Example 104], 782 nM.

With `CO[C@]1(CN2CCN3CCCC[C@H]3C2)/C=C/C[C@H](C)[C@@H](C)S(=O)(=O)NC(=O)c2ccc3c(c2)N(C[C@@H]2CC[C@H]21)C[C@@]1(CCCc2cc(Cl)ccc21)CO3` [Example 78, (1S,3′R,6′R,7′R,8′E,11′S,12′R)-6-chloro-7′-methoxy-11′,12′-dimethyl-7′-((9aS)-octahydro-2H-pyrido[1,2-a]pyrazin-2-ylmethyl)-3,4-dihydro-2H,15′H-spiro[naphthalene-1,22′-[20]oxa[13]thia[1,14]diazateracyclo [14.7.2.0~3,6~.0~19,24~]pentacosa[8,16,18,24]tetraen]-15′-one 13′,13′-dioxide], the 50% inhibitory concentration (IC50) under setting [2] is 175 nM. On to `CCO[C@@]1(CN2CCN(C3(C)COC3)CC2)/C=C/C[C@H](C)[C@@H](C)S(=O)(=O)NC(=O)c2ccc3c(c2)N(C[C@@H]2CC[C@H]21)C[C@@]1(CCCc2cc(Cl)ccc21)CO3` [Example 311, (1S,3′R,6′R,7′S,8′E,11′S,12′R)-6-chloro-7′-ethoxy-11′,12′-dimethyl-7′-((4-(3-methyl-3-oxetanyl)-1-piperazinyl)methyl)-3,4-dihydro-2H,15′H-spiro[naphthalene-1,22′-[20]oxa[13]thia[1,14]diazatetracyclo [14.7.2.0~3,6~.0~19,24~]pentacosa[8,16,18,24]tetraen]-15′-one 13′,13′-dioxide], for which the IC50 under setting [2] was determined as 362 nM. `CO[C@]1(C(=O)N(C)C)/C=C/C[C@H](C)[C@@H](C)S(=O)(=O)NC(=O)c2ccc3c(c2)N(C[C@@H]2CC[C@H]21)C[C@@]1(CCCc2cc(Cl)ccc21)CO3` [Example 177, (1S,3′R,6′R,7′R,8′E,11′S,12′R)-6-chloro-7′-methoxy-N,N, 11′,12′-tetramethyl-15′-oxo-3,4-dihydro-2H-spiro[naphthalene-1,22′-[20]oxa[13]thia[1,14]diazatetracyclo[14.7.2.0-3,6˜.0˜19,24˜]pentacosa[8,16,18,24]tetraene]-7′-carboxamide 13′,13′-dioxide]: the IC50 under setting [1] worked out at 615 nM. For the compound `C=C(C)C(=O)C[C@]1(OC)/C=C/C[C@H](C)[C@@H](C)S(=O)(=O)NC(=O)c2ccc3c(c2)N(C[C@@H]2CC[C@H]21)C[C@@]1(CCCc2cc(Cl)ccc21)CO3` [Example 100476, (1S,3′R,6′R,7′S,8′E,11′S,12′R)-6-chloro-7′-methoxy-11′,12′-dimethyl-7′-(3-methyl-2-oxo-3-buten-1-yl)-3,4-dihydro-2H,15′H-spiro[naphthalene-1,22′-[20]oxa[13]thia[1,14]diazatetracyclo [14.7.2.0~3,6~.0~19,24~]pentacosa[8,16,18,24]tetraen]-15′-one 13′,13′-dioxide], the IC50 under setting [3] worked out at 1340 nM.

Take `CCO[C@]1(CN2CCN3CCOC[C@@H]3C2)CCC[C@H](C)[C@@H](CCOC)S(=O)(=O)NC(=O)c2ccc3c(c2)N(C[C@@H]2CC[C@H]21)C[C@@]1(CCCc2ccccc21)CO3` [Example 517, (1S,3′R,6′R,7′R,11′S,12′R)-7′-ethoxy-7′-((9aS)-hexahydropyrazino[2,1-c][1,4]oxazin-8(1H)-ylmethyl)-12′-(2-methoxyethyl)-11′-methyl-3,4-dihydro-2H, 15′H-spiro[naphthalene-1,22′-[20]oxa[13]thia[1,14]diazatetracyclo[14.7.2.0-3,6˜.0˜19,24˜]pentacosa[16,18,24]trien]-15′-one 13′,13′-dioxide]: under setting [1], the 50% inhibitory concentration (IC50) is 252 nM.
